Tests used:
Test in all cases: Test B postemergence
Assay type in all cases: in vivo
Conditions in all cases: scale 0 to 100
[1] = system: woolly cupgrass (Eriochloa villosa)
Source text: (§1) Seeds of plant species selected from blackgrass (Alopecurus myosuroides), downy bromegrass (Bromus tectorum), green foxtail (Setaria viridis), Italian ryegrass (Lolium multiflorum), wheat (Triticum aestivum), wild oat (Avena fatua), galium (Galium aparine), bermudagrass (Cynodon dactylon), Surinam grass (Brachiaria decumbens), cocklebur (Xanthium strumarium), corn (Zea mays), large crabgrass (Digitaria sanguinalis), woolly cupgrass (Eriochloa villosa), giant foxtail (Setaria faberii), goosegrass (Eleusine indica), johnsongrass (Sorghum halepense), kochia (Kochia scoparia), lambsquarters (Chenopodium album), morningglory (Ipomoea coccinea), yellow nutsedge (Cyperus esculentus), pigweed (Amaranthus retroflexus), ragweed (Ambrosia elatior), soybean (Glycine max), velvetleaf (Abutilon theophrasti), barley (Hordeum vulgare), canarygrass (Phalaris minor), chickweed (Stellaria media), deadnettle (Lamium amplexicaule) and windgrass (Apera spica-venti) were planted in pots containing Redi-Earth® planting medium (Scotts Company, Marysville, Ohio, USA) comprising spaghnum peat moss, vermiculite, wetting agent and starter nutrients and treated postemergence with test compounds formulated in a non-phytotoxic solvent mixture which included a surfactant. Plants ranged in height from 2 to 18 cm (1- to 4-leaf stage).
(§2) Treated plants and controls were maintained in a greenhouse for 13 to 15 days, after which time all species were compared to controls and visually evaluated. Plant response ratings, summarized in Table B, are based on a scale of 0 to 100 where 0 is no effect and 100 is complete control. A dash (-) response means no test result.

[2] = system: windgrass (Apera spica-venti)
Source text: as §1, §2

[3] = system: cocklebur (Xanthium strumarium)
Source text: as §1, §2

[4] = system: canarygrass (Phalaris minor)
Source text: as §1, §2

[5] = system: large crabgrass (Digitaria sanguinalis)
Source text: as §1, §2

kochia (Kochia scoparia) = system: kochia (Kochia scoparia)
Source text: as §1, §2

[6] = system: deadnettle (Lamium amplexicaule)
Source text: as §1, §2

[7] = system: downy bromegrass (Bromus tectorum)
Source text: as §1, §2

[8] = system: giant foxtail (Setaria faberii)
Source text: as §1, §2

[9] = system: chickweed (Stellaria media)
Source text: as §1, §2

[10] = system: yellow nutsedge (Cyperus esculentus)
Source text: as §1, §2

[11] = system: Surinam grass (Brachiaria decumbens)
Source text: as §1, §2

[12] = system: blackgrass (Alopecurus myosuroides)
Source text: as §1, §2

corn (Zea mays) = system: corn (Zea mays)
Source text: as §1, §2

[13] = system: goosegrass (Eleusine indica)
Source text: as §1, §2

wild oat (Avena fatua) = system: wild oat (Avena fatua)
Source text: as §1, §2

[14] = system: ragweed (Ambrosia elatior)
Source text: as §1, §2

[15] = system: Italian ryegrass (Lolium multiflorum)
Source text: as §1, §2

[16] = system: velvetleaf (Abutilon theophrasti)
Source text: as §1, §2

galium (Galium aparine) = system: galium (Galium aparine)
Source text: as §1, §2

[17] = system: bermudagrass (Cynodon dactylon)
Source text: as §1, §2

[18] = system: pigweed (Amaranthus retroflexus)
Source text: as §1, §2

barley (Hordeum vulgare) = system: barley (Hordeum vulgare)
Source text: as §1, §2

COCCn1c(-c2cccc(F)c2)c(Cl)nc(C(=O)C2=C(O)CCCC2=O)c1=O [Compound 4, 5-chloro-6-(3-fluorophenyl)-3-[(2-hydroxy-6-oxo-1-cyclohexen-1-yl)carbonyl]-1-(2-methoxyethyl)-2(1H)pyrazinone]
Plant response rating, Cupgrass, Woolly ([1]; 31 g ai/ha): 50
Plant response rating, Cupgrass, Woolly ([1]; 62 g ai/ha): 70
Plant response rating, Cupgrass, Woolly ([1]; 125 g ai/ha): 75
Plant response rating, Cupgrass, Woolly ([1]; 250 g ai/ha): 85
Plant response rating, Windgrass ([2]; 31 g ai/ha): 5
Plant response rating, Windgrass ([2]; 62 g ai/ha): 30
Plant response rating, Windgrass ([2]; 125 g ai/ha): 40
Plant response rating, Windgrass ([2]; 250 g ai/ha): 65
Plant response rating, Cocklebur ([3]; 31 g ai/ha): 5
Plant response rating, Cocklebur ([3]; 62 g ai/ha): 25
Plant response rating, Cocklebur ([3]; 125 g ai/ha): 65
Plant response rating, Cocklebur ([3]; 250 g ai/ha): 85
Plant response rating, Canarygrass ([4]; 31 g ai/ha): 25
Plant response rating, Canarygrass ([4]; 62 g ai/ha): 40
Plant response rating, Canarygrass ([4]; 125 g ai/ha): 50
Plant response rating, Canarygrass ([4]; 250 g ai/ha): 60
Plant response rating, Crabgrass, Large ([5]; 31 g ai/ha): 70
Plant response rating, Crabgrass, Large ([5]; 62 g ai/ha): 75
Plant response rating, Crabgrass, Large ([5]; 125 g ai/ha): 80
Plant response rating, Crabgrass, Large ([5]; 250 g ai/ha): 85
Plant response rating, Kochia (kochia (Kochia scoparia); 31 g ai/ha): 10
Plant response rating, Kochia (kochia (Kochia scoparia); 62 g ai/ha): 45
Plant response rating, Kochia (kochia (Kochia scoparia); 125 g ai/ha): 55
Plant response rating, Kochia (kochia (Kochia scoparia); 250 g ai/ha): 90
Plant response rating, Deadnettle ([6]; 31 g ai/ha): 15
Plant response rating, Deadnettle ([6]; 62 g ai/ha): 15
Plant response rating, Bromegrass, Downy ([7]; 31 g ai/ha): 0
Plant response rating, Bromegrass, Downy ([7]; 62 g ai/ha): 10
Plant response rating, Bromegrass, Downy ([7]; 125 g ai/ha): 15
Plant response rating, Bromegrass, Downy ([7]; 250 g ai/ha): 15
Plant response rating, Foxtail, Giant ([8]; 31 g ai/ha): 40
Plant response rating, Foxtail, Giant ([8]; 62 g ai/ha): 60
Plant response rating, Foxtail, Giant ([8]; 125 g ai/ha): 70
Plant response rating, Foxtail, Giant ([8]; 250 g ai/ha): 75
Plant response rating, Chickweed ([9]; 31 g ai/ha): 5
Plant response rating, Chickweed ([9]; 62 g ai/ha): 10
Plant response rating, Chickweed ([9]; 125 g ai/ha): 15
Plant response rating, Chickweed ([9]; 250 g ai/ha): 45
Plant response rating, Nutsedge, Yellow ([10]; 31 g ai/ha): 5
Plant response rating, Nutsedge, Yellow ([10]; 62 g ai/ha): 20
Plant response rating, Nutsedge, Yellow ([10]; 125 g ai/ha): 45
Plant response rating, Nutsedge, Yellow ([10]; 250 g ai/ha): 65
Plant response rating, Surinam Grass ([11]; 31 g ai/ha): 55
Plant response rating, Surinam Grass ([11]; 62 g ai/ha): 60
Plant response rating, Surinam Grass ([11]; 125 g ai/ha): 65
Plant response rating, Surinam Grass ([11]; 250 g ai/ha): 70
Plant response rating, Blackgrass ([12]; 31 g ai/ha): 5
Plant response rating, Blackgrass ([12]; 62 g ai/ha): 5
Plant response rating, Blackgrass ([12]; 125 g ai/ha): 5
Plant response rating, Blackgrass ([12]; 250 g ai/ha): 10
Plant response rating, Corn (corn (Zea mays); 31 g ai/ha): 0
Plant response rating, Corn (corn (Zea mays); 62 g ai/ha): 20
Plant response rating, Corn (corn (Zea mays); 125 g ai/ha): 35
Plant response rating, Corn (corn (Zea mays); 250 g ai/ha): 55
Plant response rating, Goosegrass ([13]; 31 g ai/ha): 5
Plant response rating, Goosegrass ([13]; 62 g ai/ha): 45
Plant response rating, Goosegrass ([13]; 125 g ai/ha): 50
Plant response rating, Goosegrass ([13]; 250 g ai/ha): 65
Plant response rating, Oat, Wild (wild oat (Avena fatua); 31 g ai/ha): 5
Plant response rating, Oat, Wild (wild oat (Avena fatua); 62 g ai/ha): 30
Plant response rating, Oat, Wild (wild oat (Avena fatua); 125 g ai/ha): 30
Plant response rating, Oat, Wild (wild oat (Avena fatua); 250 g ai/ha): 40
Plant response rating, Ragweed ([14]; 31 g ai/ha): 50
Plant response rating, Ragweed ([14]; 62 g ai/ha): 65
Plant response rating, Ragweed ([14]; 125 g ai/ha): 75
Plant response rating, Ragweed ([14]; 250 g ai/ha): 90
Plant response rating, Ryegrass, Italian ([15]; 31 g ai/ha): 0
Plant response rating, Ryegrass, Italian ([15]; 62 g ai/ha): 0
Plant response rating, Ryegrass, Italian ([15]; 125 g ai/ha): 0
Plant response rating, Ryegrass, Italian ([15]; 250 g ai/ha): 10
Plant response rating, Velvetleaf ([16]; 31 g ai/ha): 50
Plant response rating, Velvetleaf ([16]; 62 g ai/ha): 50
Plant response rating, Velvetleaf ([16]; 125 g ai/ha): 60
Plant response rating, Velvetleaf ([16]; 250 g ai/ha): 75
Plant response rating, Galium (galium (Galium aparine); 31 g ai/ha): 50
Plant response rating, Galium (galium (Galium aparine); 62 g ai/ha): 50
Plant response rating, Bermudagrass ([17]; 31 g ai/ha): 5
Plant response rating, Bermudagrass ([17]; 62 g ai/ha): 20
Plant response rating, Bermudagrass ([17]; 125 g ai/ha): 35
Plant response rating, Bermudagrass ([17]; 250 g ai/ha): 40
Plant response rating, Pigweed ([18]; 31 g ai/ha): 65
Plant response rating, Pigweed ([18]; 62 g ai/ha): 80
Plant response rating, Pigweed ([18]; 125 g ai/ha): 90
Plant response rating, Pigweed ([18]; 250 g ai/ha): 98
Plant response rating, Barley (barley (Hordeum vulgare); 31 g ai/ha): 0
Plant response rating, Barley (barley (Hordeum vulgare); 62 g ai/ha): 20
Plant response rating, Barley (barley (Hordeum vulgare); 125 g ai/ha): 20
Plant response rating, Barley (barley (Hordeum vulgare); 250 g ai/ha): 30

— patent publication US20140024527A1, “HERBICIDAL PYRAZINONES” (E I DU DE NEMOURS AND COMPANY, priority 2011, published 2014)
